Assays:
[1] = system: Aβ40; assay: Aβ40 content secreted by HEK293APP/sw overexpression cells after compound treatment (ELISA of supernatant); assay type: cell-based; conditions: 24 h; for Aβ40 content: APP/293 (HEK293APP/sw) cells, test sample 400 μM, culture supernatant, adjusted by total protein concentration, blank 127.81; for content of Aβ40 compared with benfotiamine in Comparative Example 2: APP/293 cells, 400 μM, in words
Experimental: (§1) (1) A BCA Protein Concentration Kit was purchased from Beyotime Biotechnology, a detection kit for Aβ40 and Aβ42 was purchased from Wako Co., Ltd., and cell culture related reagents were purchased from Gibico Co., Ltd.
(§2) (2) HEK293APP/sw overexpression cell culture: cells were cultured in a 48-well plate in DMEM culture medium (containing 10% FBS, 100 μg/mL G418 (Geneticin) and diabody), 4 mM stock solution of a test sample (prepared by dissolving the test sample in DMEM culture medium) was diluted to 400 μM in DMEM culture medium at a cell density of 70%, to each well was added 500 μL of the test sample, and the cells were cultured for 24 h.
(§3) (3) To the culture solution supernatant was added a BCA reagent, after incubating for 30 min at room temperature, absorbance of each well was measured at OD […] with a microplate reader, and a total protein concentration was calculated according to a protein standard curve; concentrations of Aβ40 and Aβ42 were measured with supernatant: the supernatant was added into a coated 96-well plate, followed by incubating overnight at 4° C., the reagent was removed and washed, HRP (horseradish peroxidase) labeled antibody was added, followed by incubating for 2 h at 4° C., the reagent was removed and washed, a TMB color developing solution was added, followed by incubating for 30 min at room temperature, a stop solution was added to stop reaction, absorbance of each well was measured at OD […] with a microplate reader, concentrations of Aβ40 and Aβ42 were calculated according to standard curves of A40 and Aβ42 respectively, and finally the concentrations of Aβ40 and Aβ42 were adjusted by using a total protein concentration to obtain a final concentration.

[2] = system: Aβ42; assay: Aβ42 content secreted by HEK293APP/sw overexpression cells after compound treatment (ELISA of supernatant); assay type: cell-based; conditions: 24 h; for Aβ42 content: APP/293 (HEK293APP/sw) cells, test sample 400 μM, culture supernatant, adjusted by total protein concentration, blank 11.08; for content of Aβ42 compared with benfotiamine in Comparative Example 2: APP/293 cells, 400 μM, in words
Experimental: as §1, §2, §3

C/C(=C(\CCOP(=O)(O)O)SC(=O)c1ccccc1)N(C=O)Cc1cnc(C)nc1N [Comparative Example 2, benfotiamine, reference compound]
Aβ40 content [1]: 53.77 pmol/L | Aβ42 content [2]: 5.04 pmol/L

CCCC(=O)S/C(CCOP(=O)(O)O)=C(/C)N(C=O)Cc1cnc(C)nc1N [Example 1, (Z)—S-(2-(N-((4-amino-2-methylpyrimidin-5-yl)methyl) formamido)-5-(phosphonooxy)pent-2-en-3-yl) butanethioate]
Aβ40 content [1]: 45.47 pmol/L | Aβ42 content [2]: 8.59 pmol/L

CCCCCCCCCC(=O)S/C(CCOP(=O)(O)O)=C(/C)N(C=O)Cc1cnc(C)nc1N [Example 2, (Z)—S-(2-(N-((4-amino-2-methylpyrimidin-5-yl)methyl) formamido)-5-(phosphonooxy)pent-2-en-3-yl) decanethioate]
Aβ40 content [1]: 75.15 pmol/L | Aβ42 content [2]: 5.37 pmol/L

CCCCCCCCCCCC(=O)S/C(CCOP(=O)(O)O)=C(/C)N(C=O)Cc1cnc(C)nc1N [Example 3, (Z)—S-(2-(N-((4-amino-2-methylpyrimidin-5-yl)methyl) formamido)-5-(phosphonooxy)pent-2-en-3-yl) dodecanethioate]
Aβ40 content [1]: 128.90 pmol/L | Aβ42 content [2]: 4.93 pmol/L

C/C=C(\C)C(=O)S/C(CCOP(=O)(O)O)=C(/C)N(C=O)Cc1cnc(C)nc1N [Example 4, (E)-S—((Z)-2-(N-((4-amino-2-methylpyrimidin-5-yl)methyl) formamido)-5-(phosphonooxy)pent-2-en-3-yl) 2-methylbut-2-enethioate]
Aβ40 content [1]: 71.80 pmol/L | Aβ42 content [2]: 5.77 pmol/L

CCC(C)C(=O)S/C(CCOP(=O)(O)O)=C(/C)N(C=O)Cc1cnc(C)nc1N (stereo not drawn) [Example 5, (Z)—S-(2-(N-((4-amino-2-methylpyrimidin-5-yl)methyl) formamido)-5-(phosphonooxy)pent-2-en-3-yl) 2-methylbutanethioate]
Aβ40 content [1]: 37.65 pmol/L | content of Aβ40 compared with benfotiamine in Comparative Example 2 [1]: significantly reduced | Aβ42 content [2]: 2.09 pmol/L | content of Aβ42 compared with benfotiamine in Comparative Example 2 [2]: significantly reduced

C/C(=C(\CCOP(=O)(O)O)SC(=O)C(C)C)N(C=O)Cc1cnc(C)nc1N [Example 6, (Z)—S-(2-(N-((4-amino-2-methylpyrimidin-5-yl)methyl) formamido)-5-(phosphonooxy)pent-2-en-3-yl) 2-methylpropanethioate]
Aβ40 content [1]: 44.38 pmol/L | content of Aβ40 compared with benfotiamine in Comparative Example 2 [1]: significantly reduced | Aβ42 content [2]: 2.41 pmol/L | content of Aβ42 compared with benfotiamine in Comparative Example 2 [2]: significantly reduced

CCCCCCCC(=O)S/C(CCOP(=O)(O)O)=C(/C)N(C=O)Cc1cnc(C)nc1N [Example 7, (Z)—S-(2-(N-((4-amino-2-methylpyrimidin-5-yl)methyl) formamido)-5-(phosphonooxy)pent-2-en-3-yl) octanethioate]
Aβ40 content [1]: 106.81 pmol/L | Aβ42 content [2]: 6.09 pmol/L

C/C(=C(\CCOP(=O)(O)O)SC(=O)CCc1ccccc1)N(C=O)Cc1cnc(C)nc1N [Example 8, (Z)—S-(2-(N-((4-amino-2-methylpyrimidin-5-yl)methyl) formamido)-5-(phosphonooxy)pent-2-en-3-yl) 3-phenylpropanethioate]
Aβ40 content [1]: 57.86 pmol/L | Aβ42 content [2]: 6.38 pmol/L

C=CCCCC(=O)S/C(CCOP(=O)(O)O)=C(/C)N(C=O)Cc1cnc(C)nc1N [Example 9, (Z)—S-(2-(N-((4-amino-2-methylpyrimidin-5-yl)methyl) formamido)-5-(phosphonooxy)pent-2-en-3-yl) hex-5-enethioate]
Aβ40 content [1]: 80.40 pmol/L | Aβ42 content [2]: 5.70 pmol/L

C/C(=C(\CCOP(=O)(O)O)SC(=O)Cc1c(F)cccc1F)N(C=O)Cc1cnc(C)nc1N [Example 10, (Z)—S-(2-(N-((4-amino-2-methylpyrimidin-5-yl)methyl) formamido)-5-(phosphonooxy)pent-2-en-3-yl) 2-(2,6-difluorophenyl) ethanethioate]
Aβ40 content [1]: 71.11 pmol/L | Aβ42 content [2]: 10.62 pmol/L

C=CC(C)(C)C(=O)S/C(CCOP(=O)(O)O)=C(/C)N(C=O)Cc1cnc(C)nc1N [Example 11, (Z)—S-(2-(N-((4-amino-2-methylpyrimidin-5-yl)methyl) formamido)-5-(phosphonooxy)pent-2-en-3-yl) 2,2-dimethylbut-3-enethioate]
Aβ40 content [1]: 54.75 pmol/L | content of Aβ40 compared with benfotiamine in Comparative Example 2 [1]: substantially the same | Aβ42 content [2]: 3.22 pmol/L | content of Aβ42 compared with benfotiamine in Comparative Example 2 [2]: reduced

CCC/C=C/C(=O)S/C(CCOP(=O)(O)O)=C(/C)N(C=O)Cc1cnc(C)nc1N [Example 12, (E)-S—((Z)-2-(N-((4-amino-2-methylpyrimidin-5-yl)methyl) formamido)-5-(phosphonooxy)pent-2-en-3-yl) hex-2-enethioate]
Aβ40 content [1]: 32.87 pmol/L | content of Aβ40 compared with benfotiamine in Comparative Example 2 [1]: significantly reduced | Aβ42 content [2]: 0.34 pmol/L | content of Aβ42 compared with benfotiamine in Comparative Example 2 [2]: significantly reduced

CCCCC(CC)C(=O)S/C(CCOP(=O)(O)O)=C(/C)N(C=O)Cc1cnc(C)nc1N (stereo not drawn) [Example 13, (Z)—S-(2-(N-((4-amino-2-methylpyrimidin-5-yl)methyl) formamido)-5-(phosphonooxy)pent-2-en-3-yl) 2-ethylhexanethioate]
Aβ40 content [1]: 56.28 pmol/L | Aβ42 content [2]: 24.36 pmol/L

CCCC(C)C(=O)S/C(CCOP(=O)(O)O)=C(/C)N(C=O)Cc1cnc(C)nc1N (stereo not drawn) [Example 14, (Z)—S-(2-(N-((4-amino-2-methylpyrimidin-5-yl)methyl) formamido)-5-(phosphonooxy)pent-2-en-3-yl) 2-methylpentanethioate]
Aβ40 content [1]: 60.34 pmol/L | Aβ42 content [2]: 6.79 pmol/L

CCCCC(C)C(=O)S/C(CCOP(=O)(O)O)=C(/C)N(C=O)Cc1cnc(C)nc1N (stereo not drawn) [Example 15, (Z)—S-(2-(N-((4-amino-2-methylpyrimidin-5-yl)methyl) formamido)-5-(phosphonooxy)pent-2-en-3-yl) 2-methylhexanethioate]
Aβ40 content [1]: 40.39 pmol/L | Aβ42 content [2]: 9.59 pmol/L

CCC(C)(C)C(=O)S/C(CCOP(=O)(O)O)=C(/C)N(C=O)Cc1cnc(C)nc1N [Example 16, (Z)—S-(2-(N-((4-amino-2-methylpyrimidin-5-yl)methyl) formamido)-5-(phosphonooxy)pent-2-en-3-yl) 2,2-dimethylbutanethioate]
Aβ40 content [1]: 85.96 pmol/L | Aβ42 content [2]: 33.70 pmol/L

CCCCC(C)(C)C(=O)S/C(CCOP(=O)(O)O)=C(/C)N(C=O)Cc1cnc(C)nc1N [Example 17, (Z)—S-(2-(N-((4-amino-2-methylpyrimidin-5-yl)methyl) formamido)-5-(phosphonooxy)pent-2-en-3-yl) 2,2-dimethylhexanethioate]
Aβ40 content [1]: 77.22 pmol/L | Aβ42 content [2]: 6.24 pmol/L

— US11591354B2, “Thiamine compound, preparation method and pharmaceutical composition thereof” (SHANGHAI RAISING PHARMACEUTICAL CO., LTD., priority 2018, dated 2023)
